Source: patent US5480888A, “Inhibitor for restenosis after percutaneous coronary arterioplasty” (Daiichi Pharmaceutical Co., Ltd., priority 1992, dated 1996)

System: post PTCA vessels
Assay: Clinical test: restenosis after elective PTCA in patients with angina pectoris (coronary angiography, video-densitometry)
Format: in vivo
Protocol: 29 patients suffering from angina pectoris who received elective PTCA (43 sites ) orally took 2-phenyl-1,2-benzoisoselenazol-3(2H )-one (hereinafterreferred to as compound A) after meal with a daily dose of 200 mg, twice a day, 100 mg for each time, starting from three days prior to the PTCA operation over 3 months after operation (treated group ). […] The stenosed degree was measured by video-densitometry (Reiber JHC et al., Circulation 1985; 71:280-288), and inhibition of restenosis was evaluated on the basis of the findings. […]
In both of the treated and control groups, calcium antagonists such as nifedipine and diltiazem, and antiarteriosclerotic agents such as elastase were concurrently administered as required. As a result, there was no significant difference according to the .chi.^2 test between the two groups with regard to the use of concomitant compounds and other patient characteristics including the age, the site of the lesion, etc.

O=c1c2ccccc2[se]n1-c1ccccc1 [compound A, 2-phenyl-1,2-benzoisoselenazol-3(2H)-one]
onset rate of restenosis based on the number of patients (6 months after operation, treated group, 29 patients, control 38.2%): 18.6% | inhibition of restenosis in the location of operation (compared to the control group, Table 2): remarkable inhibition of restenosis | Stenosed Degree Before PTCA (treated group, 43 sites, 100 mg twice a day orally from three days prior to PTCA, control 87 +/- 11): 89 +/- 10 | Stenosed Degree 3 Months after PTCA (treated group, 43 sites, 100 mg twice a day orally, control 78 +/- 39, *P<0.05 vs Placebo, Chi square analysis): 54 +/- 31 | Stenosed Degree After PTCA (treated group, 43 sites, immediately after PTCA, 100 mg twice a day orally, control 32 +/- 23): 35 +/- 28
